{"source": "ChEMBL document CHEMBL5137044", "about": "“Expansion of the S-CN-DABO scaffold to exploit the impact on inhibitory activities against the non-nucleoside HIV-1 reverse transcriptase” (Eur J Med Chem, 2022)", "key": {"[1]": {"experiment": "AUC (0 to t) in Sprague-Dawley rat at 1 mg/kg,iv measured upto 24 hrs by LC-MS/MS analysis", "type": "ADME, organism-based", "parameters": "dose 1 mg/kg, time < 24 hrs, route iv", "conditions": "in vivo"}, "[2]": {"molecular_target": "Cytochrome P450 2C19 (Homo sapiens, UniProt P33261)", "sequence (P33261 whole entry)": "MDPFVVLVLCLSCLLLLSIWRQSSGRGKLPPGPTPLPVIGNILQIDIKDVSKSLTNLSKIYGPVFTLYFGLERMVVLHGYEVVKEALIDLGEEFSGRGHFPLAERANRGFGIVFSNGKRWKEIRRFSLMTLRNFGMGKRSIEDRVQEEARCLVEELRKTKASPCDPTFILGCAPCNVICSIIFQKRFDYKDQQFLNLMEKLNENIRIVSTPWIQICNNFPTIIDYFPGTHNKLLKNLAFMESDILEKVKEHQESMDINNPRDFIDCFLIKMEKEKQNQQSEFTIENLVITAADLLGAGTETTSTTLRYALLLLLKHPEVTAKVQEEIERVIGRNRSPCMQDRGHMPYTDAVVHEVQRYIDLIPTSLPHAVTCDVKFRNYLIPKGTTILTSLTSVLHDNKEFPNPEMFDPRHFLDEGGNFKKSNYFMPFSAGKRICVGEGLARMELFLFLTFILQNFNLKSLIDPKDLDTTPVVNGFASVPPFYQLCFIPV", "experiment": "Inhibition of CYP2C19 in human liver microsomes using s-mephenytoin as substrate incubated for 15 to 40 mins in presence of NADPH", "type": "ADME, Microsome"}, "[3]": {"tested_on": "Human immunodeficiency virus 1", "experiment": "Antiviral activity against drug-resistant HIV-1 Y188L mutant infected in human MT4 cells assessed as reduction in virus-induced cytopathic effect incubated for 5 days by MTT assay", "type": "functional, organism-based", "conditions": "Human immunodeficiency virus 1, Y188L mutant, MT4, 120 h"}, "[4]": {"experiment": "Half life in Sprague-Dawley rat at 1 mg/kg,iv measured upto 24 hrs by LC-MS/MS analysis", "type": "ADME, organism-based", "conditions": "in vivo"}, "[5]": {"tested_on": "Human immunodeficiency virus 1", "experiment": "Antiviral activity against drug-resistant HIV-1 L100I mutant infected in human MT4 cells assessed as reduction in virus-induced cytopathic effect incubated for 5 days by MTT assay", "type": "functional, organism-based", "conditions": "Human immunodeficiency virus 1, L100I mutant, MT4, 120 h"}, "[6]": {"molecular_target": "Human immunodeficiency virus type 1 reverse transcriptase (Human immunodeficiency virus 1, UniProt Q72547)", "experiment": "Inhibition of recombinant wild-type p66/p51 HIV-1 reverse transcriptase incubated for 40 mins by picogreen dye-based spectrofluorometric analysis"}, "[7]": {"experiment": "Fold resistance, ratio of EC50 for antiviral activity against drug-resistant HIV-1 L100I mutant infected in human MT4 cells to EC50 for antiviral activity against […] HIV-1 infected in human MT4 cells", "type": "functional"}, "[8]": {"experiment": "Apparent volume of distribution in Sprague-Dawley rat at 10 mg/kg,po measured upto 24 hrs by LC-MS/MS analysis", "type": "ADME, organism-based", "conditions": "in vivo"}, "[9]": {"experiment": "AUC (0 to infinity) in Sprague-Dawley rat at 1 mg/kg,iv measured upto 24 hrs by LC-MS/MS analysis", "type": "ADME, organism-based", "parameters": "dose 1 mg/kg, time < 24 hrs, route iv", "conditions": "in vivo"}, "[10]": {"experiment": "Fold resistance, ratio of EC50 for antiviral activity against drug-resistant HIV-1 E138K mutant infected in human MT4 cells to EC50 for antiviral activity against […] HIV-1 infected in human MT4 cells", "type": "functional"}, "[11]": {"experiment": "Fold resistance, ratio of EC50 for antiviral activity against drug-resistant HIV-1 Y188L mutant infected in human MT4 cells to EC50 for antiviral activity against […] HIV-1 infected in human MT4 cells", "type": "functional"}, "[12]": {"tested_on": "Human immunodeficiency virus 1", "experiment": "Antiviral activity against drug-resistant HIV-1 Y181C mutant infected in human MT4 cells assessed as reduction in virus-induced cytopathic effect incubated for 5 days by MTT assay", "type": "functional, organism-based", "conditions": "Human immunodeficiency virus 1, Y181C mutant, MT4, 120 h"}, "[13]": {"experiment": "Oral bioavailability in Sprague-Dawley rat at 10 mg/kg measured upto 24 hrs by LC-MS/MS analysis", "type": "ADME, organism-based", "conditions": "in vivo"}, "[14]": {"molecular_target": "Cytochrome P450 2C9 (Homo sapiens, UniProt P11712)", "sequence (P11712 whole entry)": "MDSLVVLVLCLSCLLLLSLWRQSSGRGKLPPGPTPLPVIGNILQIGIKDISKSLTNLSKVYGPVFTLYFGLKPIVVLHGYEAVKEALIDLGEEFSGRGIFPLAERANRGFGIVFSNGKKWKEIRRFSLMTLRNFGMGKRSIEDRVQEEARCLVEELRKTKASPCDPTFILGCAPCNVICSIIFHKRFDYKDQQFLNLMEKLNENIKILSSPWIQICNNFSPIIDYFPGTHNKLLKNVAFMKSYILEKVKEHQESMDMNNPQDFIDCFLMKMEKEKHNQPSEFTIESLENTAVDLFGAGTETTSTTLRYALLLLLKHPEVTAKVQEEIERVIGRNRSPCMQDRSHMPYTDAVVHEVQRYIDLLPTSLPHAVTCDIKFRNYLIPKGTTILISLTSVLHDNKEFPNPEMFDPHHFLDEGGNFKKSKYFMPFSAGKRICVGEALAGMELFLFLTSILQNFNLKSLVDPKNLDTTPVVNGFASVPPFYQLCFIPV", "experiment": "Inhibition of CYP2C9 in human liver microsomes using […] as substrate incubated for 15 to 40 mins in presence of NADPH", "type": "ADME, Microsome"}, "[15]": {"experiment": "Cmax in Sprague-Dawley rat at 10 mg/kg,po measured upto 24 hrs by LC-MS/MS analysis", "type": "ADME, organism-based", "parameters": "dose 10 mg/kg, time < 24 hrs, route po", "conditions": "in vivo"}, "[16]": {"experiment": "MRT(0 to t) in Sprague-Dawley rat at 10 mg/kg,po measured upto 24 hrs by LC-MS/MS analysis", "type": "ADME, organism-based", "conditions": "in vivo"}}}
{"smiles": "Cc1c(C(C#N)c2c(F)cccc2F)nc(SC(C)C)[nH]c1=O", "note": "(stereo unspecified)", "values": [{"measurement": "AUC(0-t) at 24 h", "setting": "[1]", "result": 8280, "unit": "ng·h/mL"}, {"measurement": "IC50", "setting": "[2]", "result": 35.3, "unit": "µM"}, {"measurement": "EC50", "setting": "[3]", "result": 69, "unit": "µM"}, {"measurement": "half-life", "setting": "[4]", "result": 4.07, "unit": "h"}, {"measurement": "EC50", "setting": "[5]", "result": 1.03, "unit": "µM"}, {"measurement": "IC50", "setting": "[6]", "result": 0.079, "unit": "µM"}, {"measurement": "Ratio EC50", "setting": "[7]", "result": 50}, {"measurement": "Vz", "setting": "[8]", "result": 0.47537, "unit": "L/kg"}, {"measurement": "AUC(0-inf)", "setting": "[9]", "result": 8320, "unit": "ng·h/mL"}, {"measurement": "Ratio EC50", "setting": "[10]", "result": 2}, {"measurement": "Ratio EC50", "setting": "[11]", "result": 3319}, {"measurement": "EC50", "setting": "[12]", "result": 0.75, "unit": "µM"}, {"measurement": "F", "setting": "[13]", "result": 164, "unit": "%"}, {"measurement": "IC50", "setting": "[14]", "result": 40.4, "unit": "µM"}, {"measurement": "Cmax", "setting": "[15]", "result": 15300, "unit": "ng/mL"}, {"measurement": "MRT last at 24 h", "setting": "[16]", "result": 6.2, "unit": "h"}]}
